This is an account of results in US20060252807A1, “Novel ortho-terphenyl inhibitors of p38 kinase and methods of treating inflammatory disorders” (Kalypsys, Inc., priority 2005, published 2006).

SMILES strings stand for the structures.

T1 sequence (Q16539 whole entry): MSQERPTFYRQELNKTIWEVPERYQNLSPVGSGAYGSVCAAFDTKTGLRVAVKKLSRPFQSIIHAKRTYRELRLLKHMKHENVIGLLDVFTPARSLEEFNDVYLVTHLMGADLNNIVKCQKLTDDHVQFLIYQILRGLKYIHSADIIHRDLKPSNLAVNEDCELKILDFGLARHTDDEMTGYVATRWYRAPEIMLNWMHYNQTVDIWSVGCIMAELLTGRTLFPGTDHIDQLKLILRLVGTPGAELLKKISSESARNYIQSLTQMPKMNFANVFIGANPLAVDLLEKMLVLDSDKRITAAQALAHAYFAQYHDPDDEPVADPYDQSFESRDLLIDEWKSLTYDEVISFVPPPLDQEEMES

This experiment concerns the target T1, active p38 alpha enzyme (Upstate Biotechnology) (Homo sapiens, UniProt Q16539).
T1 construct: purchased Upstate Biotechnology
Briefly: p38α biochemical assay (ATP turnover, luminescent detection, Cambrex PKlight). The note with it: p38α kinase; Table 1 Biological Activity. The essentials: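 Compounds in DMSO are added to active p38 alpha with MapkapK2 whole protein and ATP at 1.4 uM final. Reactions then run for 2 hours at 30C. A luminescent reagent is added last to quantify total ATP consumed.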
For orientation: IC50 means the concentration that inhibits the measured activity by half. A lower IC50 goes with higher potency. For `CC(C)NC(=O)c1csc(-c2c(-c3ccc(F)cc3)noc2CNC(=O)c2cccc(I)c2)n1` [Example 801], the concentration for half-maximal inhibition (IC50) is > 1000 nM.

Consider `CC(C)NC(=O)c1csc(-c2c(-c3ccc(F)cc3)noc2CNC(=O)C2CCCN2C(=O)OCc2ccccc2)n1` (stereo not drawn) [Example 802], for which the IC50 is > 1000 nM.

Regarding `CCC(C)C(NC(=O)OC(C)(C)C)C(=O)NCc1onc(-c2ccc(F)cc2)c1-c1nc(C(=O)NC(C)C)cs1` (stereo not drawn) [Example 803], the concentration for half-maximal inhibition (IC50) is > 1000 nM.

Consider `CC(C)CC(NC(=O)OC(C)(C)C)C(=O)NCc1onc(-c2ccc(F)cc2)c1-c1nc(C(=O)NC(C)C)cs1` (stereo not drawn) [Example 804], for which the IC50 was > 1000 nM.

Take `CC(C)NC(=O)c1csc(-c2c(-c3ccc(F)cc3)noc2CNC(=O)C(C)c2cccc(C(=O)c3ccccc3)c2)n1` (stereo not drawn) [Example 805]: the IC50 is > 1000 nM.

`CC(C)NC(=O)c1csc(-c2c(-c3ccc(F)cc3)noc2CNC(=O)C(Cc2ccccc2)NC(=O)OC(C)(C)C)n1` (stereo not drawn) [Example 806]: the 50% inhibitory concentration (IC50) was > 1000 nM.

For the compound `CC(C)NC(=O)c1csc(-c2c(-c3ccc(F)cc3)noc2CNC(=O)C(Cc2ccccn2)NC(=O)OC(C)(C)C)n1` (stereo not drawn) [Example 807], the concentration for half-maximal inhibition (IC50) is > 1000 nM.

With `CC(C)NC(=O)c1csc(-c2c(-c3ccc(F)cc3)noc2CNC(=O)C2Cc3ccccc3CN2C(=O)OC(C)(C)C)n1` (stereo not drawn) [Example 808], the IC50 is > 1000 nM.

Regarding `CC(C)NC(=O)c1csc(-c2c(-c3ccc(F)cc3)noc2CNC(=O)C(Cc2ccc(O)cc2)NC(=O)OC(C)(C)C)n1` (stereo not drawn) [Example 809], the concentration for half-maximal inhibition (IC50) was > 1000 nM.

Turning to `CC(C)NC(=O)c1csc(-c2c(-c3ccc(F)cc3)noc2CN)n1` [Example 810], the IC50 is ≤ 1000 nM.

Turning to `CC(C)NC(=O)c1csc(-c2c(-c3ccc(F)cc3)n[nH]c2C2CCN(C(=O)C=O)CC2)n1` [Example 813], the IC50 was ≤ 1000 nM.

As for `CC(C)NC(=O)c1csc(-c2c(-c3ccc(F)cc3)n[nH]c2C2CCN(C(=O)CC#N)CC2)n1` [Example 814], the IC50 was ≤ 1000 nM.

For `CC(C)NC(=O)c1csc(-c2c(-c3ccc(F)cc3)n[nH]c2C2CCN(C(=O)C(C)O)CC2)n1` (stereo not drawn) [Example 815], the IC50 is ≤ 1000 nM.

Consider `CCC(=O)C(=O)N1CCC(c2[nH]nc(-c3ccc(F)cc3)c2-c2nc(C(=O)NC(C)C)cs2)CC1` [Example 816], for which the half-inhibitory concentration (IC50) was > 1000 nM.

For the compound `CC(C)NC(=O)c1csc(-c2c(-c3ccc(F)cc3)n[nH]c2C2CCN(C(=O)C(C)(C)C)CC2)n1` [Example 817], the IC50 is ≤ 1000 nM.

In the case of `CC(C)CC(=O)N1CCC(c2[nH]nc(-c3ccc(F)cc3)c2-c2nc(C(=O)NC(C)C)cs2)CC1` [Example 818], the half-inhibitory concentration (IC50) is > 1000 nM.

On to `CC(C)NC(=O)c1csc(-c2c(-c3ccc(F)cc3)n[nH]c2C2CCN(C(=O)c3cnc[nH]3)CC2)n1` [Example 819], for which the IC50 is > 1000 nM.

As for `CC(C)NC(=O)c1csc(-c2c(-c3ccc(F)cc3)n[nH]c2C2CCN(C(=O)C3=CCCC3)CC2)n1` [Example 821], the IC50 was > 1000 nM.

In the case of `CC(C)NC(=O)c1csc(-c2c(-c3ccc(F)cc3)n[nH]c2C2CCN(C(=O)C3CCCO3)CC2)n1` (stereo not drawn) [Example 823], the 50% inhibitory concentration (IC50) is ≤ 1000 nM.

On to `CC(C)NC(=O)c1csc(-c2c(-c3ccc(F)cc3)n[nH]c2C2CCN(C(=O)c3ccccc3)CC2)n1` [Example 825], for which the half-maximal inhibitory concentration (IC50) is ≤ 1000 nM.

Take `CC(C)NC(=O)c1csc(-c2c(-c3ccc(F)cc3)n[nH]c2C2CCN(C(=O)C(O)CCl)CC2)n1` (stereo not drawn) [Example 829]: the 50% inhibitory concentration (IC50) is ≤ 1000 nM.

As to `Cc1cc(C(=O)N2CCC(c3[nH]nc(-c4ccc(F)cc4)c3-c3nc(C(=O)NC(C)C)cs3)CC2)n[nH]1` [Example 830], the half-maximal inhibitory concentration (IC50) was > 1000 nM.

As for `CC(C)NC(=O)c1csc(-c2c(-c3ccc(F)cc3)n[nH]c2C2CCN(C(=O)c3cn(C)cn3)CC2)n1` [Example 831], the IC50 is > 1000 nM.

As to `CC(C)NC(=O)c1csc(-c2c(-c3ccc(F)cc3)n[nH]c2C2CCN(C(=O)C3CCCCC3)CC2)n1` [Example 832], the IC50 is > 1000 nM.

Take `CC(C)NC(=O)c1csc(-c2c(-c3ccc(F)cc3)n[nH]c2C2CCN(C(=O)c3cscn3)CC2)n1` [Example 833]: the half-inhibitory concentration (IC50) is ≤ 1000 nM.

As for `CCOC(=O)CC(=O)N1CCC(c2[nH]nc(-c3ccc(F)cc3)c2-c2nc(C(=O)NC(C)C)cs2)CC1` [Example 834], the IC50 is ≤ 1000 nM.

As to `Cc1cccc(C(=O)N2CCC(c3[nH]nc(-c4ccc(F)cc4)c3-c3nc(C(=O)NC(C)C)cs3)CC2)c1` [Example 835], the IC50 was > 1000 nM.

With `Cc1ccccc1C(=O)N1CCC(c2[nH]nc(-c3ccc(F)cc3)c2-c2nc(C(=O)NC(C)C)cs2)CC1` [Example 836], the IC50 was ≤ 1000 nM.

Turning to `Cc1ccc(C(=O)N2CCC(c3[nH]nc(-c4ccc(F)cc4)c3-c3nc(C(=O)NC(C)C)cs3)CC2)cc1` [Example 837], the IC50 was > 1000 nM.

Consider `CC(C)NC(=O)c1csc(-c2c(-c3ccc(F)cc3)n[nH]c2C2CCN(C(=O)c3cccc(O)c3)CC2)n1` [Example 838], for which the IC50 was ≤ 1000 nM.

For `CC(C)NC(=O)c1csc(-c2c(-c3ccc(F)cc3)n[nH]c2C2CCN(C(=O)c3ccccc3O)CC2)n1` [Example 839], the IC50 was > 1000 nM.

Regarding `CC(C)NC(=O)c1csc(-c2c(-c3ccc(F)cc3)n[nH]c2C2CCN(C(=O)c3ccc(F)cc3)CC2)n1` [Example 840], the IC50 is > 1000 nM.

On to `CC(C)NC(=O)c1csc(-c2c(-c3ccc(F)cc3)n[nH]c2C2CCN(C(=O)c3cccc(F)c3)CC2)n1` [Example 841], for which the concentration for half-maximal inhibition (IC50) is > 1000 nM.

As for `CCCCCCCC(=O)N1CCC(c2[nH]nc(-c3ccc(F)cc3)c2-c2nc(C(=O)NC(C)C)cs2)CC1` [Example 842], the IC50 is > 1000 nM.

For `CC(C)NC(=O)c1csc(-c2c(-c3ccc(F)cc3)n[nH]c2C2CCN(C(=O)c3cccc(C#N)c3)CC2)n1` [Example 844], the IC50 was > 1000 nM.

`CC(C)NC(=O)c1csc(-c2c(-c3ccc(F)cc3)n[nH]c2C2CCN(C(=O)/C=C/c3ccccc3)CC2)n1` [Example 845]: the IC50 is > 1000 nM.

As for `CC(C)NC(=O)c1csc(-c2c(-c3ccc(F)cc3)n[nH]c2C2CCN(C(=O)c3ccccc3C=O)CC2)n1` [Example 846], the half-inhibitory concentration (IC50) was ≤ 1000 nM.

Turning to `CC(C)NC(=O)c1csc(-c2c(-c3ccc(F)cc3)n[nH]c2C2CCN(C(=O)c3ccc(C=O)cc3)CC2)n1` [Example 847], the IC50 is ≤ 1000 nM.

Regarding `Cc1ccc(C(=O)N2CCC(c3[nH]nc(-c4ccc(F)cc4)c3-c3nc(C(=O)NC(C)C)cs3)CC2)c(C)c1` [Example 848], the IC50 was > 1000 nM.

Turning to `Cc1ccccc1CC(=O)N1CCC(c2[nH]nc(-c3ccc(F)cc3)c2-c2nc(C(=O)NC(C)C)cs2)CC1` [Example 849], the IC50 was > 1000 nM.

In the case of `Cc1cccc(C(=O)N2CCC(c3[nH]nc(-c4ccc(F)cc4)c3-c3nc(C(=O)NC(C)C)cs3)CC2)c1C` [Example 850], the half-inhibitory concentration (IC50) is > 1000 nM.

Turning to `Cc1ccc(C)c(C(=O)N2CCC(c3[nH]nc(-c4ccc(F)cc4)c3-c3nc(C(=O)NC(C)C)cs3)CC2)c1` [Example 851], the IC50 was > 1000 nM.

With `Cc1cc(C)cc(C(=O)N2CCC(c3[nH]nc(-c4ccc(F)cc4)c3-c3nc(C(=O)NC(C)C)cs3)CC2)c1` [Example 852], the IC50 is > 1000 nM.

For `Cc1ccc(C(=O)N2CCC(c3[nH]nc(-c4ccc(F)cc4)c3-c3nc(C(=O)NC(C)C)cs3)CC2)cc1C` [Example 853], the IC50 was > 1000 nM.

In the case of `CCc1ccc(C(=O)N2CCC(c3[nH]nc(-c4ccc(F)cc4)c3-c3nc(C(=O)NC(C)C)cs3)CC2)cc1` [Example 854], the IC50 was > 1000 nM.

As to `COc1ccc(C(=O)N2CCC(c3[nH]nc(-c4ccc(F)cc4)c3-c3nc(C(=O)NC(C)C)cs3)CC2)cc1` [Example 855], the concentration for half-maximal inhibition (IC50) is > 1000 nM.

Consider `Cc1cccc(C(=O)N2CCC(c3[nH]nc(-c4ccc(F)cc4)c3-c3nc(C(=O)NC(C)C)cs3)CC2)c1O` [Example 856], for which the IC50 was > 1000 nM.

As for `CC(C)NC(=O)c1csc(-c2c(-c3ccc(F)cc3)n[nH]c2C2CCN(C(=O)Cc3ccccc3O)CC2)n1` [Example 857], the IC50 was ≤ 1000 nM.

For `CC(C)NC(=O)c1csc(-c2c(-c3ccc(F)cc3)n[nH]c2C2CCN(C(=O)Cc3cccc(O)c3)CC2)n1` [Example 858], the concentration for half-maximal inhibition (IC50) is > 1000 nM.

With `Cc1ccc(O)c(C(=O)N2CCC(c3[nH]nc(-c4ccc(F)cc4)c3-c3nc(C(=O)NC(C)C)cs3)CC2)c1` [Example 859], the IC50 is > 1000 nM.

`CC(C)NC(=O)c1csc(-c2c(-c3ccc(F)cc3)n[nH]c2C2CCN(C(=O)c3cc(O)ccc3O)CC2)n1` [Example 860]: the 50% inhibitory concentration (IC50) was > 1000 nM.

For the compound `CC(C)NC(=O)c1csc(-c2c(-c3ccc(F)cc3)n[nH]c2C2CCN(C(=O)c3cccc(O)c3O)CC2)n1` [Example 861], the concentration for half-maximal inhibition (IC50) is > 1000 nM.

With `CC(C)NC(=O)c1csc(-c2c(-c3ccc(F)cc3)n[nH]c2C2CCN(C(=O)c3ccc(O)cc3O)CC2)n1` [Example 862], the IC50 is > 1000 nM.

Consider `Cc1ccc(C(=O)N2CCC(c3[nH]nc(-c4ccc(F)cc4)c3-c3nc(C(=O)NC(C)C)cs3)CC2)cc1F` [Example 863], for which the IC50 was > 1000 nM.

Take `Cc1ccc(F)cc1C(=O)N1CCC(c2[nH]nc(-c3ccc(F)cc3)c2-c2nc(C(=O)NC(C)C)cs2)CC1` [Example 864]: the IC50 is > 1000 nM.

`CC(C)NC(=O)c1csc(-c2c(-c3ccc(F)cc3)n[nH]c2C2CCN(C(=O)c3ccccc3Cl)CC2)n1` [Example 865]: the half-maximal inhibitory concentration (IC50) was > 1000 nM.

On to `CC(C)NC(=O)c1csc(-c2c(-c3ccc(F)cc3)n[nH]c2C2CCN(C(=O)c3ccc(Cl)nc3)CC2)n1` [Example 866], for which the IC50 is > 1000 nM.

As to `CC(C)NC(=O)c1csc(-c2c(-c3ccc(F)cc3)n[nH]c2C2CCN(C(=O)c3cccnc3Cl)CC2)n1` [Example 867], the IC50 was ≤ 1000 nM.

In the case of `CC(C)NC(=O)c1csc(-c2c(-c3ccc(F)cc3)n[nH]c2C2CCN(C(=O)c3ccnc(Cl)c3)CC2)n1` [Example 868], the IC50 was ≤ 1000 nM.

`CC(C)NC(=O)c1csc(-c2c(-c3ccc(F)cc3)n[nH]c2C2CCN(C(=O)c3cc(Cl)ccn3)CC2)n1` [Example 869]: the IC50 is ≤ 1000 nM.
